# Experimental data published in US20260232763A1 (Kadmon Corporation, LLC, priority 2023, published 2026).
# “And” between values parts separate entries of the source, which are not always exact repeats. Equal values may be shown once. Read-outs that look alike come from different tables or passages of the source.
# Tests used:
# clinical = settings: male, human, in vivo
# Protocol: On Day 10, the victim and perpetrator IMPs were administered simultaneously.
# On the evening before each dose, participants were provided with a light snack and were required to fast from all food and drink (except water) for a minimum of 10 hours until the following morning. All study interventions were administered in the fed state, following completion of a standard breakfast (with dosing planned to occur 30 minutes after the start of the breakfast).
# The PK parameters underwent a natural logarithmic transformation and were analyzed using a mixed effect modelling technique. Adjusted geometric mean ratios and 90% confidence intervals (CIs) of the ratios were obtained for each comparison. The ratio was defined as test/reference. In addition, the intraparticipant variability were also presented. […] No formal interim analyses were performed for this study.
# pregnant rats = settings: cited from earlier work
# [1] = dosage range of 200 and 400 mg; cited from earlier work
# human serum albumin = human serum albumin (Homo sapiens, UniProt P02768); settings: in vitro; cited from earlier work
# CYP3A4 = CYP3A4 (Homo sapiens, UniProt P08684); settings: in vitro; cited from earlier work
# [2] = healthy subjects, cited from earlier work
# P-gp = P-gp (Homo sapiens, UniProt P08183); settings: in vitro, cited from earlier work
# BCRP = target: T1, BCRP (Homo sapiens, UniProt Q9UNQ0); settings: in vitro, at clinically relevant concentrations; cited from earlier work
# T1 sequence (Q9UNQ0 1-655): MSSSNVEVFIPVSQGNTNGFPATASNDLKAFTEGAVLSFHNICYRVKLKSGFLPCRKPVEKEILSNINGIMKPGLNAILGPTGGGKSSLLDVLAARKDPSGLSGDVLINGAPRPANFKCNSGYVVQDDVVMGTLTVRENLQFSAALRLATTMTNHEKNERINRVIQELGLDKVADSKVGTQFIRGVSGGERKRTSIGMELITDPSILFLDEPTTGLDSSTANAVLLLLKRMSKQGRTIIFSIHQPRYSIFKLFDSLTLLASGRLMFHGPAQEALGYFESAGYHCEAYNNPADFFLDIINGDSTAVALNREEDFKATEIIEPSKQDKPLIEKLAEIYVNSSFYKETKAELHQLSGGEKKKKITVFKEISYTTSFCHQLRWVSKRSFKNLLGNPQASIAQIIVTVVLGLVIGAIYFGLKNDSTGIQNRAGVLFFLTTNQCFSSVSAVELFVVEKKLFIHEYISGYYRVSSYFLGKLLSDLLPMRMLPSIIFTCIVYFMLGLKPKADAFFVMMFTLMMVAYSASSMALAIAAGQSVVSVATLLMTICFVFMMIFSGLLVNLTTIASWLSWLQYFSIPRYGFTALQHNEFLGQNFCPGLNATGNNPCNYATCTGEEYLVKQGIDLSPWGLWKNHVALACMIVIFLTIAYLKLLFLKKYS
# CYP2C19 = CYP2C19 (Homo sapiens, UniProt P33261); settings: in vitro; cited from earlier work
# CYP2D6 = CYP2D6 (Homo sapiens, UniProt P10635); settings: in vitro; cited from earlier work
# UGT1A1 = target: T2, UGT1A1 (Homo sapiens, UniProt P22309); settings: in vitro; cited from earlier work
# T2 sequence (P22309 26-533): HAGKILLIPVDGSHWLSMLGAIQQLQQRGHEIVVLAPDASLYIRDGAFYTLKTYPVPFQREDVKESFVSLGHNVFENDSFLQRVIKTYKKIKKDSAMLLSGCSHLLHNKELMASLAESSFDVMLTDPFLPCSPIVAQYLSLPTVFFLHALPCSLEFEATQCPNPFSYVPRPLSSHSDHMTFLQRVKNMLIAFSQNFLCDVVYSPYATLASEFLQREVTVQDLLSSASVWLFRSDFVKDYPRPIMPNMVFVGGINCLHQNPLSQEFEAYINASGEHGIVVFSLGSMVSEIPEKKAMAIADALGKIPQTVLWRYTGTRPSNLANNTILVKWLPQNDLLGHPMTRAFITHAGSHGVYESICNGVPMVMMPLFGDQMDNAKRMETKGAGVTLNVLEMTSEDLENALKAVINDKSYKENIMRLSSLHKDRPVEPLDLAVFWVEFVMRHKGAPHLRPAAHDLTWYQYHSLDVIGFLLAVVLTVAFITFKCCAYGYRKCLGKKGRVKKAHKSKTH
# rat bone marrow = rat bone marrow micronucleus; cited from earlier work
# rats = settings: oral; cited from earlier work
# dogs = settings: cited from earlier work
# [3] = coadministration of rabeprazole
# Sequence of P-gp (P08183 whole entry): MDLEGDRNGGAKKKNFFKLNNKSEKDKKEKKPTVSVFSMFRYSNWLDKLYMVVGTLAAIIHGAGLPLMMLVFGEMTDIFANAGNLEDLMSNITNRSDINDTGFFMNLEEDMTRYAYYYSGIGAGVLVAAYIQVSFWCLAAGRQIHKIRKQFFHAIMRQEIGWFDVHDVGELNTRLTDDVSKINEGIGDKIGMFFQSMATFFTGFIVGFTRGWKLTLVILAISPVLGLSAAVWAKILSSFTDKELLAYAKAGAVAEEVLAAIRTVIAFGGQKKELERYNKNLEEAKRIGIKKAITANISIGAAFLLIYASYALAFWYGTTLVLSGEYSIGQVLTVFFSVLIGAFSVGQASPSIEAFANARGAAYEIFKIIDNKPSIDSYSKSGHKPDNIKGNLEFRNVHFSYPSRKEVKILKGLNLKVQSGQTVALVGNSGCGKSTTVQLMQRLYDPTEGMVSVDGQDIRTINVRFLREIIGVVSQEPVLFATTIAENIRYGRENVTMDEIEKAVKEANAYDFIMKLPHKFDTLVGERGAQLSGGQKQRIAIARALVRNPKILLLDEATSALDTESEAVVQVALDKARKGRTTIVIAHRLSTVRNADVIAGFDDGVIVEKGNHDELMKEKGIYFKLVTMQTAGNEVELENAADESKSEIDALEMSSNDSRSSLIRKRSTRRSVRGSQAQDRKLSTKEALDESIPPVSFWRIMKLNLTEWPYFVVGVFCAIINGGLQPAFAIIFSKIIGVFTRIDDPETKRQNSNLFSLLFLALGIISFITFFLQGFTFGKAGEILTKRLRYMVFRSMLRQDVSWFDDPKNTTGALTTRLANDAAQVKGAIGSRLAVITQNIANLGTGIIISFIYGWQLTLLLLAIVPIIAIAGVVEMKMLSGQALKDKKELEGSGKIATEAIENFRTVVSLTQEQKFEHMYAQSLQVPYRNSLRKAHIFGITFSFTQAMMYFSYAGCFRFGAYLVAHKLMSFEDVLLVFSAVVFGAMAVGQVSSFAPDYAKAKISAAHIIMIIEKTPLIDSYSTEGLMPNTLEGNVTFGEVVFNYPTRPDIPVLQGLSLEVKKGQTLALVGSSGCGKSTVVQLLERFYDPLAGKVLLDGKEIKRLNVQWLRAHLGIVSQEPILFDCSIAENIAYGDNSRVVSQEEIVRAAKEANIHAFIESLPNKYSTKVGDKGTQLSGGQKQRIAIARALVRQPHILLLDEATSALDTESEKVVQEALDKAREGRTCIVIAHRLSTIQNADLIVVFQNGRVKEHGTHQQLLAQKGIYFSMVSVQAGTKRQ
# Sequence of CYP2D6 (P10635 whole entry): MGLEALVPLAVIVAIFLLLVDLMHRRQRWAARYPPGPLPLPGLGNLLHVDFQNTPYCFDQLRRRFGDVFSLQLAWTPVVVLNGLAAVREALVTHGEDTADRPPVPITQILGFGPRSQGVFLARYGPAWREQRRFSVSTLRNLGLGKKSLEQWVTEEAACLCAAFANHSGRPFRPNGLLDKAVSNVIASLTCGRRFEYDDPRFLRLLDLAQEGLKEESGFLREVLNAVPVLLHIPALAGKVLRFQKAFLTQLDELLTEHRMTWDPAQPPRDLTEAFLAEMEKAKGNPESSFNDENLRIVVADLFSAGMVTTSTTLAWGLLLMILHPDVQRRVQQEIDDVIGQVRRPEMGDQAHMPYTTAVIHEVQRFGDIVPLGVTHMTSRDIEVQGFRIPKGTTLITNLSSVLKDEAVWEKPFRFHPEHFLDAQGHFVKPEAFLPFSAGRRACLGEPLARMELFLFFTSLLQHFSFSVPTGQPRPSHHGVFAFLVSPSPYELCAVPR
# Sequence of human serum albumin (P02768 25-609): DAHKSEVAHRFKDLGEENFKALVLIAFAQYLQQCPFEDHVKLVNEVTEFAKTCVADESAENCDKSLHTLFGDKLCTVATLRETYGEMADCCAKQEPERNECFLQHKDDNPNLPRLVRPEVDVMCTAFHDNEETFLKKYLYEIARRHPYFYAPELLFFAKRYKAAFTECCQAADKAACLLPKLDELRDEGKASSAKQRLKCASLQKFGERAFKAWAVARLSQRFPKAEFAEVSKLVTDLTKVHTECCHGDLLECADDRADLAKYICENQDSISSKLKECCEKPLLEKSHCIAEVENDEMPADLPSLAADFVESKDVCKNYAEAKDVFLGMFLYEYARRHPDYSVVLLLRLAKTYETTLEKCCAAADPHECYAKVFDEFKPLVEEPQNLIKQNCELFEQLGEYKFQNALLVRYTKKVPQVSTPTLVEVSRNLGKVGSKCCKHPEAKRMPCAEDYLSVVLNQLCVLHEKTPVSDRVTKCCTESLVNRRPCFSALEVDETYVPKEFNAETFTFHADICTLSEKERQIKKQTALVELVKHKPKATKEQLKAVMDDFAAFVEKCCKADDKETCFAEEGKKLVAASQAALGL
# Sequence of CYP2C19 (P33261 whole entry): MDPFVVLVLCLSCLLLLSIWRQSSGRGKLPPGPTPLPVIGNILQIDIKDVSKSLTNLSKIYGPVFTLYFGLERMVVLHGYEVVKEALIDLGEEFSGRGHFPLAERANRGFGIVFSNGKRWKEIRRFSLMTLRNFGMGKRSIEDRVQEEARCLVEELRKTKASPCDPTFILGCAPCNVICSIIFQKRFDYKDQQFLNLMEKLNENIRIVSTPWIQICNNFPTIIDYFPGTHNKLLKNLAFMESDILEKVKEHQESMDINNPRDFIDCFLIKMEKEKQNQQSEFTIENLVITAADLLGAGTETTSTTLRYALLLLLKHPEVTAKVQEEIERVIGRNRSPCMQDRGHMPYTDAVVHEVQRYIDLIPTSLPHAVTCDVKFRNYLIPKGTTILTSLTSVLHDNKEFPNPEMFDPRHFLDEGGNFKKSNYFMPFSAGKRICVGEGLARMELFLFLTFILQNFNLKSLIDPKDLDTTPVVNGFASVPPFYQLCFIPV
# Sequence of CYP3A4 (P08684 whole entry): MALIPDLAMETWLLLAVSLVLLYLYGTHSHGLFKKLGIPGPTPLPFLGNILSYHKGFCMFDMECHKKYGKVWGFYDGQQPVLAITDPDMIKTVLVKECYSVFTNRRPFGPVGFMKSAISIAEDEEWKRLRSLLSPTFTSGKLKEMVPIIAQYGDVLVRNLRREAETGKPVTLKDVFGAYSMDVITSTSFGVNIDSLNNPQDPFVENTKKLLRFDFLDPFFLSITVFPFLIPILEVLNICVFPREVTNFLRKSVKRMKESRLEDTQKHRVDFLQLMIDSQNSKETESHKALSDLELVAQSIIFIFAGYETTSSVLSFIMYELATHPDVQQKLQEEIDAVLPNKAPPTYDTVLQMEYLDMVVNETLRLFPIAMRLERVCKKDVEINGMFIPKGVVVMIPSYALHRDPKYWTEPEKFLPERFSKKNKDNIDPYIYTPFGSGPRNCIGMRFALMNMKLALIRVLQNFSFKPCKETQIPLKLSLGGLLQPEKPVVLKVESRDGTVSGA
structure (smiles),measurement,setting,value
"CC(C)NC(=O)COc1cccc(-c2nc(Nc3ccc4[nH]ncc4c3)c3ccccc3n2)c1 [belumosudil, 2-{3-[4-(1H-indazol-5-ylamino)-2-quinazolinyl]phenoxy}-N-(propan-2-yl) acetamide]",Tmax,clinical,1.5 to 2 h
same,increase of exposures (Cmax and AUC) following multiple dosing,clinical,1.21-1.57 fold
same,"AUC(0-last), geometric mean",clinical; 200 mg,9710 ng·h/mL
same,"AUC(0-tau), geometric mean",clinical; 200 mg,9710 ng·h/mL
same,"Cmax, geometric mean",clinical; 200 mg,2080 ng/mL
same,"T1/2, geometric mean",clinical; 200 mg,4.901 h
same,half-life,clinical; 200 mg,~5 h
same,participants reporting a TEAE,"52 participants, Grade 1 (mild)",3.8%
same,number of TEAEs judged related to belumosudil,headache,1 event
same,"safety and tolerability when coadministered with raltegravir, dabigatran etexilate, rosuvastatin calcium","healthy male participants, 200 mg QD",safe and well tolerated
same,serious adverse events or TEAEs leading to withdrawal or death,in vivo,No serious adverse events
same,"maternal exposures (AUC) with adverse developmental outcomes, times the human exposure (AUC) at the recommended dose","pregnant rats; pregnant rats, period of organogenesis",≥ 3 times
same,dose with fetal malformations,"pregnant rats; rats, oral, pilot study",≥ 50 mg/kg/day
same,dose with maternal toxicity (reduced body weight gain),"pregnant rats; rats, oral, pilot study",150 mg/kg/day and 300 mg/kg/day
same,Cmax and AUC increase with dose,[1],approximately proportional
same,binding to human serum albumin,human serum albumin,99.9%
same,metabolism,CYP3A4,"primarily metabolized by CYP3A4 and to a lesser extent by CYP2C8, CYP2D6, and UGT1A9"
same,effect on belumosudil exposure,[2]; coadministered with itraconazole,no clinically meaningful effect
same,decrease of AUC,[2]; coadministration of omeprazole,47%
same,decrease of Cmax,[2]; coadministration of omeprazole,68%
same,decrease of AUC,[2]; [3],80%
same,decrease of Cmax,[2]; [3],87%
same,decrease of AUC,[2]; coadministration of rifampin,72%
same,decrease of Cmax,[2]; coadministration of rifampin,59%
same,P-gp inhibition,P-gp; at clinically relevant concentrations,inhibits
same,P-gp substrate status,P-gp,substrate of P-gp
same,BCRP inhibition,BCRP,inhibits
same,CYP2C19 inhibition,CYP2C19,inhibitor
same,CYP2D6 inhibition,CYP2D6,inhibitor
same,UGT1A1 inhibition,UGT1A1,inhibitor
same,genotoxicity,rat bone marrow,not genotoxic
same,dose with abnormal sperm findings and testes/epididymis organ changes in male rats,rats,275 mg/kg/day
same,"dose with adverse findings in female rats (increased pre- or post-implantation loss, decreased number of viable embryos)",rats,275 mg/kg/day
same,dose with reduced fertility in treated males or females,rats,275 mg/kg/day
same,dose with spermatozoa degeneration,dogs,35 mg/kg/day
